Reference: the NIST ThermoML archive (doi:10.1021/je8004479)
± gives the expanded uncertainty stated by the source.

Legend:
[1] = xn = mol fraction of the nth substance listed; conditions: 294 K; for mass density / viscosity: 101 kPa, Liquid; for mass density: Vibrating tube method
[2] = refractive index (Na D-line) (dimensionless); xn = mol fraction of the nth substance listed; conditions: 294 K, 101 kPa, Liquid, Standard Abbe refractometry

CCO [ethanol] + OCC(O)CO
x1 = 1
Conditions	mass density [kg/m3]	refractive index	surface tension liquid-gas [mN/m]	viscosity [mPa·s]
[1]	789.91 ± 0.22	–	22.2 ± 1.3	1.214
[2]	–	1.3618 ± 0.0032	–	–

OCC(O)CO [glycerol] + CCO
Conditions	mass density, [1] [kg/m3]	refractive index, [2]	surface tension liquid-gas, [1] [mN/m]	viscosity, [1] [mPa·s]
x2 = 0	1261.51 ± 0.34	1.474 ± 0.0035	63.1 ± 3.2	1390 ± 350
x2 = 0.084	1233.48 ± 0.75	1.468 ± 0.0035	52 ± 2.7	800.5 ± 160
x2 = 0.1222	1220.3 ± 0.77	1.466 ± 0.0035	48.8 ± 2.6	627.9 ± 120
x2 = 0.1761	1201.19 ± 0.78	1.4619 ± 0.0035	43 ± 2.3	450 ± 73
x2 = 0.2037	1191.35 ± 0.79	1.4592 ± 0.0034	41.7 ± 2.2	385.1 ± 58
x2 = 0.2385	1178.37 ± 0.81	1.4562 ± 0.0034	39.4 ± 2.1	270 ± 34
x2 = 0.2789	1162.98 ± 0.84	1.4528 ± 0.0034	35.8 ± 2	220.5 ± 24
x2 = 0.351	1134.3 ± 0.86	1.447 ± 0.0034	33.2 ± 1.9	141.4 ± 11
x2 = 0.4138	1108.32 ± 0.9	1.4392 ± 0.0034	29.7 ± 1.7	80.71 ± 4.3
x2 = 0.4841	1077.53 ± 0.94	1.4326 ± 0.0034	28.5 ± 1.6	54.01 ± 2.7
x2 = 0.5497	1047.03 ± 0.98	1.4253 ± 0.0034	27.1 ± 1.6	31.52 ± 2.2
x2 = 0.6046	1020.27 ± 1	1.4179 ± 0.0034	25.1 ± 1.5	20.31 ± 2.1
x2 = 0.6526	995.96 ± 1.1	1.4131 ± 0.0033	24.3 ± 1.4	16.7 ± 2.1
x2 = 0.7451	946.41 ± 1.1	1.4016 ± 0.0033	23.5 ± 1.4	9.096 ± 2
x2 = 0.7984	916.05 ± 1.2	1.3934 ± 0.0033	23.5 ± 1.4	5.217 ± 2
x2 = 0.8336	895.63 ± 1.2	1.3885 ± 0.0033	23 ± 1.4	4.1 ± 2
x2 = 0.8777	868.79 ± 1.2	1.3815 ± 0.0033	22.5 ± 1.4	3.037
x2 = 0.9353	832.89 ± 1.3	1.3727 ± 0.0032	22.4 ± 1.4	1.898
x2 = 0.9596	816.85 ± 1.4	1.3681 ± 0.0032	22.3 ± 1.3	1.49
